Data taken from US9567524B2, “Polymerizable liquid crystal compound, and compensation film, antireflective film, and display device including the same” (SAMSUNG ELECTRONICS CO., LTD., priority 2015, dated 2017).

Assay: Thermogravimetric analysis (TGA), thermal stability
Type: physicochemical
Conditions: Trios V3.0, 10° C./min, N2 atmosphere; FIG. 7
Description: Thermogravimetric analysis (TGA) and differential scanning calorimetry (DSC) analysis of the polymerizable liquid crystal compound according to Synthesis Example 1 are performed by using Trios V3.0 (TA Instrument, 10° C./min, N2 atmosphere). FIG. 7 is a drawing showing the thermogravimetric analysis of the polymerizable liquid crystal compound 1a-5 according to Synthesis Example 1, and FIG. 8 is a drawing showing the differential scanning calorimetry (DSC) analysis of the polymerizable liquid crystal compound 1a-5 according to Synthesis Example 1.
Referring to FIG. 7, the polymerizable liquid crystal compound 1a-5 of Synthesis Example 1 is decomposed at a temperature of greater than or equal to 300° C.

## C=CC(=O)OCCCOc1ccc(C(=O)OCc2ccc(C(=O)Oc3ccc(OC(=O)c4ccc(COC(=O)c5ccc(OCCCOC(=O)C=C)cc5)cc4)cc3)cc2)cc1 [Compound 1a-5]
  Decomposition temperature (TGA): greater than or equal to 300 °C
